According to the Deep4Chem optical property database:

Assay: solvent given as SMILES

In the case of `CC1(C)CC(/C=C/c2ccc(N3CCOCCOCCOCCOCC3)cc2)=CC(=C(C#N)C#N)C1`, the emission maximum (in C1CCOC1) is reported as 623 nm, the emission maximum (in CC#N) is reported as 640 nm and the emission maximum (in CCO) is reported as 641 nm. It also gave an emission maximum (in CCOC(C)=O) of 618 nm, an emission maximum (in ClCCl) of 625 nm and an emission maximum (in c1ccccc1) of 596 nm.
`C1=Cc2nc1c(-c1ccccc1)c1ccc([nH]1)c(-c1ccccc1)c1nc(c(-c3ccccc3)c3ccc([nH]3)c2-c2ccccc2)C=C1` showed an emission maximum (in CC(=O)N(C)C) of 650 nm and an emission maximum (in ClCCl) of 651 nm.
`CC(C)[Si](C#Cc1ccc(-c2c3cccc4c5cccc6c(-c7ccc(C#C[Si](C(C)C)(C(C)C)C(C)C)cc7)c7cccc8c9cccc2c9c(c34)c(c65)c78)cc1)(C(C)C)C(C)C` showed an emission maximum (in Cc1ccccc1) of 744 nm.
Work on `O=C(c1ccc(N(c2ccccc2)c2ccccc2)cc1)[C@H]1[C@H](c2ccc(F)cc2)C[C@](O)(c2ccccn2)C[C@]1(O)c1ccccn1` yielded an emission maximum (in C1CCOC1) of 502 nm, an emission maximum (in CC#N) of 523 nm and an emission maximum (in CCO) of 515 nm. The emission maximum (in CCOC(C)=O) was 502 nm, the emission maximum (in CN(C)C=O) was 524 nm and the emission maximum (in ClCCl) was 518 nm. For the same molecule, the emission maximum (in c1ccccc1) was 485 nm.
In the case of `COc1ccc(/C=C/C2=CC(c3ccccc3)=[O+][B-](F)(F)O2)cc1`, the emission maximum (in ClCCl) is reported as 506 nm.
For `CCCCCCOc1ccc(C#Cc2ccc(C#CC#Cc3ccc(C#Cc4ccc(OCCCCCC)c(OCCCCCC)c4)c4nsnc34)c3nsnc23)cc1OCCCCCC`, the emission maximum (in CN(C)C=O) was 638 nm, the emission maximum (in COc1ccccc1) was 555 nm and the emission maximum (in Cc1ccccc1) was 528 nm. For the same molecule, the emission maximum (in ClC(Cl)Cl) was 563 nm, the emission maximum (in ClCCCl) was 591 nm and the emission maximum (in ClCCl) was 582 nm.
Molecule `Nc1ccccc1` has an emission maximum (in C1CCCCC1) of 323.42 nm.
With `C(=C1c2ccccc2CCc2ccccc21)c1ccc(-c2cc(-c3ccc(C=C4c5ccccc5CCc5ccccc54)cc3)cc(-c3ccc(C=C4c5ccccc5CCc5ccccc54)cc3)c2)cc1` the emission maximum (in C1CCOC1) was 403 nm.
With `CCN(C(C)=O)c1cc2c(cc1C)C(c1ccccc1C(=O)O)=C1CCCC(/C=C/C3=[N+](C)c4ccccc4C3(C)C)=C1O2` the emission maximum (in CCO) was 687 nm.
Work on `COc1ccc(NC(=O)C(C(=O)Nc2ccc(OC)cc2)C(c2ccccc2O)c2c(C)[nH]c3ccccc23)cc1` (configuration not stated) yielded an emission maximum (in CO) of 350 nm and an emission maximum (in CS(C)=O) of 360 nm.
`C[Si]1(C)O[Si](C)(C)c2cc3nc4ccc([N+](=O)[O-])cc4c(-c4ccccc4)c3cc2[Si](C)(C)O1` showed an emission maximum (in ClCCl) of 520 nm.
`COc1ccc2nc(/N=N/c3ccc(N(C)C)cc3)sc2c1` gave an emission maximum (in CC#N) of 574 nm and an emission maximum (in ClCCl) of 572 nm.
Molecule `Fc1ccc(-c2cccc3ncc(-c4ccccc4)n23)cc1` has an emission maximum (in ClCCl) of 469 nm.
`CN(C)c1ccc2nc(-c3ccc(C(=O)OC[C@H](NC(=O)OC(C)(C)C)C(=O)OCc4ccccc4)cc3)sc2c1` gave an emission maximum (in C1CCCCC1) of 456 nm, an emission maximum (in CC#N) of 568 nm and an emission maximum (in CC(C)O) of 558 nm. The emission maximum (in CO) was 577 nm, the emission maximum (in CS(C)=O) was 583 nm and the emission maximum (in ClC(Cl)Cl) was 504 nm. For the same molecule, the emission maximum (in c1ccccc1) was 484 nm.
`CC(C)CCC[C@@H](C)[C@H]1CC[C@H]2[C@@H]3CC=C4C[C@@H](OC(=O)Oc5cc(/C=C/c6ccc(N(C)C)cc6)ccc5[N+](=O)[O-])CC[C@]4(C)[C@H]3CC[C@]12C` showed an emission maximum (in C1CCCCC1) of 503 nm, an emission maximum (in C1COCCO1) of 573 nm and an emission maximum (in CCCCCCC) of 503 nm. For the same molecule, the emission maximum (in Cc1ccccc1) was 554 nm.
With `CCCCOC(=O)c1cc(Oc2ccc(C(C)(C)C)cc2)c2c3c(Cl)cc4c5c(cc(Cl)c(c6c(Oc7ccc(C(C)(C)C)cc7)cc(C(=O)OCCCC)c1c26)c53)C(=O)N(c1c(C(C)C)cccc1C(C)C)C4=O` the emission maximum (in Cc1ccccc1) was 589 nm.
Molecule `CCN1CCCc2cc3c(cc21)Oc1cc2c(cc1=N3)C(CS(=O)(=O)[O-])CC(C)(C)[N+]=2CCCC(=O)[O-]` (configuration not stated) has an emission maximum (in O) of 690 nm.
`C(=C\c1cccnc1)/c1ccc(Nc2ccccc2)cc1` showed an emission maximum (in CC#N) of 456 nm and an emission maximum (in CCCCCC) of 385 nm.
For `F[B-]1(F)n2c(-c3ccccc3)cc(-c3ccccn3)c2N=C2C(c3ccccn3)=CC(c3ccccc3)=[N+]21`, the emission maximum (in CC#N) was 682 nm.
For `CCCCCCN1C(=O)c2cccc3c(-c4ccc(Cl)s4)ccc(c23)C1=O`, the emission maximum (in ClC(Cl)Cl) was 482 nm.
Work on `CCc1c(C)c2n(c1C)[B-](F)(F)[N+]1=C(NCc3ccc(OC)cc3)C=CC1=C2C` yielded an emission maximum (in CC#N) of 546 nm, an emission maximum (in CCCCCC) of 554 nm and an emission maximum (in CCOC(C)=O) of 549 nm. The emission maximum (in CO) was 548 nm and the emission maximum (in ClCCl) was 551 nm.
Work on `CCN(CC)c1ccc2c(c1)oc(=O)c1c(C)nc3c(c(-c4ccccc4)nn3C)c12` yielded an emission maximum (in ClCCl) of 461 nm.
With `CCOC(CN1C(=O)C2=C(c3cccs3)N(CC(OCC)OCC)C(=O)C2=C1c1cccs1)OCC` the emission maximum (in ClC(Cl)Cl) was 557 nm.
Molecule `N#Cc1c2oc3ccccc3oc2c(C#N)c2oc3ccccc3oc12` has an emission maximum (in ClC(Cl)Cl) of 475 nm.
For `COC(=O)c1ccc(C2=C3C=c4sc(-c5cccs5)cc4=[N+]3[B-](F)(F)n3c2cc2sc(-c4cccs4)cc23)cc1`, the emission maximum (in ClCCl) was 716 nm.
With `CCN(CC)c1ccc2c(c1)oc(=O)c1cc3c(-c4ccccc4)nn(C)c3nc12` the emission maximum (in ClCCl) was 506 nm.
With `CN(C)c1ccc(-c2cc(-c3ccc(C#N)cc3)nn2C)cc1` the emission maximum (in C1CCCCC1) was 363 nm, the emission maximum (in CC#N) was 595 nm and the emission maximum (in CCOC(C)=O) was 481 nm. The emission maximum (in CCOCC) was 429 nm, the emission maximum (in CN(C)C=O) was 590 nm and the emission maximum (in Cc1ccccc1) was 410 nm. The emission maximum (in ClCCl) was 499 nm.
Work on `CCN(CC)c1ccc(/C=N/C2CCCCC2/N=C/c2ccc(N(CC)CC)cc2O)c(O)c1` (configuration not stated) yielded an emission maximum (in CC#N) of 426 nm, an emission maximum (in CN(C)C=O) of 432 nm and an emission maximum (in ClCCl) of 461 nm.
For `Cc1ccc2c(c1)c1cc(C)ccc1n2-c1c(-n2c3ccccc3c3ccccc32)c(C#N)c(-n2c3ccccc3c3ccccc32)c(-n2c3ccc(C)cc3c3cc(C)ccc32)c1-n1c2ccccc2c2ccccc21`, the emission maximum (in Cc1ccccc1) was 480 nm.
For `C/C(=N\Nc1ccc(C#N)cc1)c1ccccn1`, the emission maximum (in CC#N) was 463 nm, the emission maximum (in CCCCCC) was 452 nm and the emission maximum (in CO) was 482 nm. It also gave an emission maximum (in CS(C)=O) of 475 nm and an emission maximum (in ClC(Cl)Cl) of 460 nm.
Work on `COc1ccc(-c2nc(-c3ccccc3O)c(-c3ccccc3O)n2-c2ccc(C)cc2)cc1` yielded an emission maximum (in C1CCOC1) of 357 nm, an emission maximum (in CS(C)=O) of 389 nm and an emission maximum (in ClC(Cl)Cl) of 410 nm. For the same molecule, the emission maximum (in ClCCl) was 347 nm.
`CCCCCCCCCCC(CCCCCCCCCC)Cn1c2cc(-c3ccc(C(C)(C)C)cc3)c3cccc4c5ccc6c7cc(-c8cc(C(C)(C)C)cc(C(C)(C)C)c8)n8c7c(c7cc1c(c5c76)c2c34)=C1C=CC(c2cc(C(C)(C)C)cc(C(C)(C)C)c2)=[N+]1[B-]8(F)F` gave an emission maximum (in Cc1ccccc1) of 830 nm.
For `CCCCN1C(=O)C2=C(c3ccc(Br)cc3)[N-]C(=O)C2=C1c1ccc(Br)cc1`, the emission maximum (in ClCCl) was 613 nm.
`CN(CCO)c1ccc(/N=N/c2ccc([N+](=O)[O-])cc2)cc1` showed an emission maximum (in CO) of 580 nm, an emission maximum (in OCC(O)CO) of 581 nm and an emission maximum (in OCCO) of 583 nm. For the same molecule, the emission maximum (in Oc1ccccc1) was 581 nm.
`CCCCCCCCCc1c2ccccc2cc2c1oc1c3c(c4ccccc4c12)-c1c(c2oc4cc5ccccc5cc4c2c2ccccc12)OCO3` showed an emission maximum (in C1CCOC1) of 416 nm.
`CCCC1(CCC)c2cc(-c3ccc(OC)cc3)ccc2-c2ccc(-c3ccc4c(c3)C(CCC)(CCC)c3cc(-c5ccc(OC)cc5)ccc3-4)cc21` showed an emission maximum (in C1CCCCC1) of 395 nm.
`N#CC1=CC(c2ccccc2)=CC(C#N)=P1(c1ccccc1)c1ccccc1` gave an emission maximum (in ClC(Cl)Cl) of 525 nm.
In the case of `CC(C)CN1C(=O)/C(=C/c2ccc(C#N)cc2)C=C1c1ccccc1`, the emission maximum (in C1COCCO1) is reported as 598 nm.
With `CC(C)(C)NC(=O)c1ccc(Br)c2ccc3c4ccccc4c4ccccc4c3c12` the emission maximum (in ClCCl) was 388 nm.
`CN(C)c1ccc2nc(-c3ccc(C=C4C(=O)c5ccccc5C4=O)cc3)sc2c1` gave an emission maximum (in C1CCCCC1) of 535 nm and an emission maximum (in ClC(Cl)Cl) of 727 nm.
